Patent US8124582B2, “Treatment of diabetes” (FibroGen, Inc., priority 2002, dated 2012)

What was measured:
Set-up in all cases: species or system Swiss Webster male mice
GluT-1 = assay: In vivo GluT-1 gene expression in kidney, dose response (microarray); settings: mice, low dose (30 mg/ml) or high dose (100 mg/ml), oral gavage once per day for 4 days; FIG. 3A
Protocol: To investigate the dose response of compounds of the present invention, twelve Swiss Webster male mice (30-32 g) (obtained from Simonsen, Inc., Gilroy Calif.) were treated by oral gavage once per day for 4 days with a 4 ml/kg volume of either 0.5% carboxymethyl cellulose (CMC; Sigma-Aldrich, St. […] Four hours after the final dose, animals were anesthetized, sacrificed, and approximately 150 mg of liver and each kidney were isolated and stored in RNALATER solution (Ambion) at −20° C.
(§1) RNA from tissues obtained from the experiments described above was isolated using the following protocol. A 50 mg section of each organ was diced, 875 μl of RLT buffer (RNEASY kit; Qiagen Inc., Valencia Calif.) was added, and the pieces were homogenized for about 20 seconds using a rotor-stator POLYTRON homogenizer (Kinematica, Inc., Cincinnati Ohio). […] The RNA was eluted into 80 μL of water and quantitated with RIBOGREEN reagent (Molecular Probes, Eugene Oreg.). […] The absorbance at 260 and 280 nm was measured to determine RNA purity and concentration.
(§2) Alternatively, tissue samples were diced and homogenized in TRIZOL reagent (Invitrogen Life Technologies, Carlsbad Calif.) using a rotor-stator POLYTRON homogenizer (Kinematica). […] The absorbance at 260 and 280 nm was measured to determine RNA purity and concentration. […]

IGFBP-1 = assay: In vivo IGFBP-1 gene expression in kidney and liver (microarray); settings: mice, oral gavage; time course; quantitatively different level between tissues; FIG. 3B
Protocol: (§3) To determine gene induction patterns over time, twenty four Swiss Webster male mice (30-32 g) were obtained from Simonsen, Inc. and treated by oral gavage with a 4 ml/kg volume of either 0.5% carboxymethyl cellulose (CMC; Sigma-Aldrich, St. Louis Mo.) (0 mg/kg/day) or […] compound B (25 mg/ml in 0.5% CMC) (100 mg/kg). At 4, 8, 16, 24, 48, or 72 hours after the final dose, animals were anesthetized with isoflurane. The mice were then sacrificed and tissue samples of kidney, liver, brain, lung, and heart were isolated and stored in RNALATER solution (Ambion) at −80° C.
as §1, §2

adrenomedullin = assay: In vivo adrenomedullin mRNA expression (microarray); settings: mice, heart, kidney, and lung
Protocol: as §3
For measurement of adrenomedullin mRNA expression, samples were prepared and were hybridized and analyzed as described above in Example 4.

[1] = system: PFK-P, PFK-L, enolase-1, GluT-1, lactate dehydrogenase-1, aldolase-1, hexokinase-1; assay: In vivo expression of genes encoding enzymes involved in glucose regulation (microarray, time course); settings: mice, 100 mg/kg oral gavage
Protocol: as §3, §1, §2

O=C(O)CNC(=O)c1nc(Cl)c2ccccc2c1O [compound B, [(1-Chloro4-hydroxy-isoquinoline-3-carbonyl)-amino]-acetic acid]
expression of the gene encoding GluT-1 in kidney (GluT-1): dose-dependent alteration
IGFBP-1 expression in kidney and liver (IGFBP-1): almost identical temporal induction
expression of adrenomedullin (adrenomedullin; 100 mg/kg oral gavage, FIG. 10B): increased in various tissues
time within which adrenomedullin mRNA levels returned to control levels (adrenomedullin; time course): 16 to 24 h
expression of genes encoding enzymes involved in glucose regulation ([1]; kidney, liver, lung, 4-72 hours after dose, FIGS. 2A-2C): increased in a coordinated fashion
time after which most mRNA levels returned to control levels ([1]; time course): 24 to 48 h
